The target of one data set is T1, hERG potassium channel (Homo sapiens, UniProt Q12809).
T1 construct: expressed in transfected cells
As to the kind of experiment: Effects on hERG potassium channels, manual whole cell patch-clamp in CHO cells. Particulars: hERG potassium current, room temperature. In kind it is cell-based. From the text:
2. Effects of the Compounds on hERG Potassium Channels
Experimental platform: electrophysiological manual patch-clamp system
Cell line: Chinese hamster ovary (CHO) cells stably expressing hERG potassium ion channel
Experimental method: For CHO (Chinese Hamster Ovary) cells stably expressing hERG potassium channel, whole cell patch-clamp technique was used to recorded hERG potassium channel current at room temperature in this experiment. The glass microelectrode is made of a glass electrode blank (BF150-86-10, Sutter) by a puller. The tip resistance after filling the liquid in the electrode is about 2-5 MΩ. The glass microelectrode can be connected to the patch-clamp amplifier by inserting the glass microelectrode into an amplifier probe. The clamping voltage and data recording are controlled and recorded by the pClamp 10 software through a computer. The sampling frequency is 10 kHz, and the filtering frequency is 2 kHz. After the whole cell records were obtained, the cells were clamped at −80 mV, and the step voltage that induced the hERG potassium current (IhERG) was depolarized from −80 mV to +20 mV for 2 s, then repolarized to −50 mV, and returned to −80 mV after 1 s. This voltage stimulation was given every 10 s, and the administration process was started after the hERG potassium current was confirmed to be stable (at least 1 minute). The compound was administered for at least 1 minute at each test concentration, and at least 2 cells (n≥2) were tested at each concentration.
Data analysis processing was carried out by using pClamp 10, GraphPad Prism 5 and Excel software. The inhibition degree of hERG potassium current (peak value of hERG tail current induced at −50 mV) at different compound concentrations was calculated by the following formula: Inhibition %=[1−(I/Io)]×100%.
Among the formula, Inhibition % represents the percentage of inhibition of hERG potassium current by the compound, and I and Io represent the amplitude of hERG potassium current after and before dosing, respectively.
Compound IC50 was calculated using GraphPad Prism 5 software by fitting according to the following equation:
Y=Bottom+(Top−Bottom)/(1+10^((LogIC50−X)×HillSlope))
Among the equation, X represents the Log value of the tested concentration of the test sample, Y represents the inhibition percentage at the corresponding concentration, and Bottom and Top represent the minimum and maximum inhibition percentage, respectively.

The nature of data set [1]: Stability test in canine liver microsomes. Format: in vitro ADME. Particulars: dog. How it is done:
6. Stability Test in Canine Liver Microsomes At 37° C., 1 μM of the test compound was incubated with canine liver microsomes (0.5 mg/mL) supplemented with NADPH regeneration system for 5, 15, 30, 45 and 60 minutes, and then LC-MS/MS method was used to detect the concentration of the test compound in the generated sample. The half-life (T1/2) and inherent clearance rate (CLint(mic)) of the compound in canine liver microsome solution were obtained by calculating at the corresponding time points and the remaining percentage of the compound.
For orientation: Liver microsomes are vesicles of endoplasmic reticulum, rich in cytochrome P450 enzymes.

A short description of data set [2]: Stability test in monkey liver microsomes. In kind it is in vitro ADME. On the procedure: 4. Stability Test in Monkey Liver Microsomes At 37° C., 1 μM of the test compound was incubated with monkey liver microsomes (0.5 mg/mL) supplemented with NADPH regeneration system for 5, 15, 30, 45 and 60 minutes, and then LC-MS/MS method was used to detect the concentration of the test compound in the generated sample. The half-life (T1/2) and inherent clearance rate (CLint(mic)) of the compound in monkey liver microsome solution were obtained by calculating at the corresponding time points and the remaining percentage of the compound.

The next data set concerns the target T2, PDE10A1 (Homo sapiens, UniProt Q9Y233).
T2 construct: purchased Biomol (BPS Bioscience) BPS-60385
In words: PDE10A1 inhibition by fluorescence polarization. In kind it is biochemical. Particulars: PDE10A1 kit, read-out: IC50 (μM), inhibitory effect on PDE10A1. The text has this: 8. Activity of the Compounds on PDE10A1
In this experiment, the effect of the compounds on the inhibition of PDE10A1 activity was detected by the method of fluorescence polarization. PDE10A1 kit was used for detection (Biomol, BPS-60385). […]
On the technique in general: In fluorescence polarisation assays a small probe gives low polarisation when free and higher when bound to something large.

Data set [3] can be described thus: Stability test in mouse liver microsomes. Format: in vitro ADME. To be noted: mouse liver microsomes 0.5 mg/mL, 1 μM compound, NADPH, 37° C.; for microsomal CLint at 1 μM: read-out: CLint(mic). How it is done:
3. Stability Test in Mouse Liver Microsomes At 37° C., 1 μM of the test compound was incubated with mouse liver microsomes (0.5 mg/mL) supplemented with NADPH regeneration system for 5, 10, 20, 30 and 60 minutes, and then LC-MS/MS method was used to detect the concentration of the test compound in the generated sample. The half-life (T1/2) and inherent clearance rate (CLint(mic)) of the compound in mouse liver microsome solution were obtained by calculating at the corresponding time points and the remaining percentage of the compound.

The target of another data set is T3, GLP-1 receptor (Homo sapiens, UniProt P43220).
T3 construct: expressed in transfected cells
As to the kind of experiment: HEK293/CRE-luc/GLP-1R cell luciferase reporter test (agonistic effect on GLP-1 receptor). Format: cell-based. To be noted: HEK293/CRE-luc/GLP-1R cells. On the procedure: 1. HEK293/CRE-luc/GLP-1β cell viability
Cell: HEK293/CRE-luc/GLP-1R
Cell culture medium: DMEM+10% FBS+400 μg/ml G418+100 μg/ml Hygromycin B
Frozen stock solution: 90% FBS, 10% (V/V) DMSO
Detection buffer: DMEM+1% FBS
Cells were cultured in DMEM medium+10% FBS+400 μg/ml G418+100 μg/ml Hygromycin B in a CO2 incubator at 37° C., and passaged once every 3-4 days.
Cell plating: Trypsinization adjusted the cell density to 1.67×10^5 cells/mL; 60 μL of cells per well (10000 cells/well) was inoculated in a 384-well plate containing compounds; A NC well (negative control) and a background well (no cells) were set. Incubation was performed for about 18+2 h in the incubator.
Compounds were serially diluted with the detection buffer, and the detection concentration was 0.01 nM-1000 nM.
The cell culture plate was removed and all supernatant was aspirated from the cells. The cells were washed gently 2 times with 1×PBS.
The diluted compound was added to a 384-well plate (10 μL/well), and three replicate wells were set for each concentration. 10 μL of the detection buffer was added to the NC well, sealed and incubated at 37° C. for 6 hours.
The plate was removed, the cells were allowed to equilibrate to room temperature (at least 15 min), and then all supernatant was aspirated from the cells.
Steady-Glo® Reagent was added to the sample well at 10 μL/well and incubated at room temperature for 5 min to lyse the cells.
The test results were read with a BMG microplate reader.
The mean background value was calculated.
The induction factor (Fold of induction, FI)=(induction well value−background value)/(negative control well value −background value) was calculated.
The EC50 value of the sample was calculated using Graphpad Prim 8.0 software using four-parameter fitting analysis.
Mean and standard error (Mean±SEM) were calculated for all results and Graphpad Prism software was used for statistical analysis. Specific data were presented in the form of graphs. P<0.05 was considered to be statistically different.

Data set [4] can be described thus: Stability test in human liver microsomes. In kind it is in vitro ADME. Particulars: human liver microsomes 0.5 mg/mL, 1 μM compound, NADPH, 37° C. On the procedure: 7. Stability Test in Human Liver Microsomes At 37° C., 1 μM of the test compound was incubated with human liver microsomes (0.5 mg/mL) supplemented with NADPH regeneration system for 5, 10, 20, 30 and 60 minutes, and then LC-MS/MS method was used to detect the concentration of the test compound in the generated sample. The half-life (T1/2) and inherent clearance rate (CLint(mic)) of the compound in human liver microsome solution were obtained by calculating at the corresponding time points and the remaining percentage of the compound.

The mark [5] stands for this setting: 6 hours incubation, class symbols, read-out: EC50.
Where [6] appears, read: bound stated, read-out: EC50 value.

One may read the IC50 as the point on the concentration scale where inhibition reaches its midpoint. A word on the half-life: it is the time needed for the level to fall by half in the phase considered. As usually defined, the EC50 is the concentration at which the effect is half-maximal.

Structures are written as SMILES. Structures can show the parent of a compound that is named as a salt. Where two headings read alike, the source gives them in different places. Where only a bound is given, the exact number is not on record here.

T3 sequence (P43220 24-463): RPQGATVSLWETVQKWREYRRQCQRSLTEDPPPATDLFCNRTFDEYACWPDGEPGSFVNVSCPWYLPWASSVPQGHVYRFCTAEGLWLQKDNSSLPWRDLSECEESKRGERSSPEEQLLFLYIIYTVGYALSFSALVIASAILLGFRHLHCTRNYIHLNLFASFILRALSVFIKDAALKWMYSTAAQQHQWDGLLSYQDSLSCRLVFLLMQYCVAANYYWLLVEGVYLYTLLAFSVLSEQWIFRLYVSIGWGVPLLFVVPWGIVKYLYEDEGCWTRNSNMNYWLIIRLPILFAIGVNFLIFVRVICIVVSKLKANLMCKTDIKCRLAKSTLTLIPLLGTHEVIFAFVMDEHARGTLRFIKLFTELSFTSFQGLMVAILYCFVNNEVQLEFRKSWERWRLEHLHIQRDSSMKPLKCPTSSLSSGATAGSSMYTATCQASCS
T1 sequence (Q12809 whole entry): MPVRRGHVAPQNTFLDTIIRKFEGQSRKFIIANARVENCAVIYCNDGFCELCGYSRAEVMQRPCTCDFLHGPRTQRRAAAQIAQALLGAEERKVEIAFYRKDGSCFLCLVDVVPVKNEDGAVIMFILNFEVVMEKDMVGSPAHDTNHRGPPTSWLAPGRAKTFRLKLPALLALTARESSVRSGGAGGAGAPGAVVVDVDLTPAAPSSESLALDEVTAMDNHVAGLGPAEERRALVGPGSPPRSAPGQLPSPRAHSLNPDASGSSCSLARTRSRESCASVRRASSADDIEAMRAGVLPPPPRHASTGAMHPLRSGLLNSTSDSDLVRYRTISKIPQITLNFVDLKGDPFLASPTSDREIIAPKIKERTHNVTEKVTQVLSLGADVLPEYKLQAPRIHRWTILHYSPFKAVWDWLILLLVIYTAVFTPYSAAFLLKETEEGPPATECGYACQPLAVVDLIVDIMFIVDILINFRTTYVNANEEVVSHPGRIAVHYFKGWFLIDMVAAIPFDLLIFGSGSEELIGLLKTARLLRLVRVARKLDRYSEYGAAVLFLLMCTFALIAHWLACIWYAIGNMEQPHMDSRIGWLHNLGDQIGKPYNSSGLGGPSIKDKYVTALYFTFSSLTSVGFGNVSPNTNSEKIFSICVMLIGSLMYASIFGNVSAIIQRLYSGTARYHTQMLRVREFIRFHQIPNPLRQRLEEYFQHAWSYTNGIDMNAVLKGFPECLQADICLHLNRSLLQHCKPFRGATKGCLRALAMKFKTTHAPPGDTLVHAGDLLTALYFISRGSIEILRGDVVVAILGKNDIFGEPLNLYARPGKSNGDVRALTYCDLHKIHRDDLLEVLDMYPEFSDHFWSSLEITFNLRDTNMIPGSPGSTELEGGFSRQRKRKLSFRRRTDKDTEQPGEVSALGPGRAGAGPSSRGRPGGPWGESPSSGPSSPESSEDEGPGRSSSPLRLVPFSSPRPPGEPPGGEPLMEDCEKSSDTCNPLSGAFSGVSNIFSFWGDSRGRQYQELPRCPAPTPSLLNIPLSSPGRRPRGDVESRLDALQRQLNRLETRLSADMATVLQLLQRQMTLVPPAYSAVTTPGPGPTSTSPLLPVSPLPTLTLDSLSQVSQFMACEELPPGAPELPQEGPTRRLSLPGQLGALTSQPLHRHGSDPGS
T2 sequence (Q9Y233 1-779 isoform Q9Y233-1): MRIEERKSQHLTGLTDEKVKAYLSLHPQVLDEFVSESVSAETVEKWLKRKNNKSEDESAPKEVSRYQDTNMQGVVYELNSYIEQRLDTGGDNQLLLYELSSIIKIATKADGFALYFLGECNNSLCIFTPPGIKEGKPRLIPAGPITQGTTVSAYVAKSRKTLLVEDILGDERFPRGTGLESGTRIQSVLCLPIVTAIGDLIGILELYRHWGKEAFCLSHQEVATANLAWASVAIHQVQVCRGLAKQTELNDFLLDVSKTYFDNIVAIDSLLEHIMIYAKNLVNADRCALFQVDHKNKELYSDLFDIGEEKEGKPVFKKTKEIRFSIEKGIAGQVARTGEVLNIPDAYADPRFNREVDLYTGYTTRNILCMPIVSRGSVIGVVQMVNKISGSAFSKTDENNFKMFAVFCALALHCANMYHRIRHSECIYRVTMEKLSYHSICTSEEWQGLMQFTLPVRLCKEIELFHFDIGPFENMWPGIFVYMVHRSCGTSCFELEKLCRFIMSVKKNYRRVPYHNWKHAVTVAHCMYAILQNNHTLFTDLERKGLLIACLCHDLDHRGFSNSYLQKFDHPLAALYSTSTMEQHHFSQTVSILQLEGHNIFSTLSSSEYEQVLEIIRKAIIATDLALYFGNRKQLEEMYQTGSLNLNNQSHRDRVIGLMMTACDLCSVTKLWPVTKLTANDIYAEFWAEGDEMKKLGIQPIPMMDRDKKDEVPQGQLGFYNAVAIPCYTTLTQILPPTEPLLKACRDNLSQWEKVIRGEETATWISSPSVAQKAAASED

On hERG potassium channel, `N#Cc1ccc(COc2cccc(C3CCN(Cc4nc5sc(C(=O)O)cc5n4C[C@@H]4CCO4)CC3)n2)c(F)c1` [Compound 1, (S)-2-((4-(6-((4-cyano-2-fluorobenzyl)oxy)pyridin-2-yl)piperidin-1-yl)methyl)-1-(oxetan-2-ylmethyl)-1H-thieno[2,3-d]imidazole-5-carboxylic acid] registered an IC50 of 33600 nM. In data set [1] (microsomes), this compound came in with a microsomal CLint at 1 μM of 0.23 µL/min/mg. In data set [1] (canine liver microsomes 0.5 mg/mL, 1 μM compound, NADPH, 37° C.), this compound showed a half-life at 1 μM of 102 h.

As for `N#Cc1ccc(COc2cccc(C3=CCN(Cc4nc5sc(C(=O)O)cc5n4C[C@@H]4CCO4)CC3)n2)c(F)c1` [Compound 2, (S)-2-((6-((4-cyano-2-fluorobenzyl)oxy)-3′,6′-dihydro-[2,4′-bipyridin]-1′(2′H)-yl)methyl)-1-(oxetan-2-ylmethyl)-1H-thieno[2,3-d]imidazole-5-carboxylic acid], the half-life at 1 μM in data set [2] (monkey liver microsomes 0.5 mg/mL, 1 μM compound, NADPH, 37° C.) was 14 h; in data set [3] it was 23.6 h. Further, the microsomal CLint at 1 μM in data set [2] (monkey, microsomes) was determined as 1.6 µL/min/mg; in data set [3] it was 0.977 µL/min/mg. The results for the half-inhibitory concentration (IC50) against hERG potassium channel and on PDE10A1 were 52200 nM and over 500 µM, respectively.

For `CC1(c2ccc(C#N)cc2F)Oc2cccc(C3CCN(Cc4nc5sc(C(=O)O)cc5n4C[C@@H]4CCO4)CC3)c2O1` (stereo partly drawn) [Compound 5-2], the IC50 against hERG potassium channel was over 40000 nM. For the same compound, in data set [3], the half-life at 1 μM is 93.1 h and the microsomal CLint at 1 μM worked out at 0.252 µL/min/mg.

Take `CC1(c2ccc(Cl)cn2)Oc2cccc(C3CCN(Cc4nc5sc(C(=O)O)cc5n4C[C@@H]4CCO4)CC3)c2O1` (stereo partly drawn) [Compound 24, 2-((4-(2-(5-chloropyridin-2-yl)-2-methylbenzo[d][1,3]dioxol-4-yl)piperidin-1-yl)methyl)-1-(((S)-oxetan-2-yl)methyl)-1H-thieno[2,3-d]imidazole-5-carboxylic acid]: the EC50 at GLP-1 receptor (setting [5]) and on GLP-1 receptor (setting [6]) was under 10 nM throughout.

With `N#Cc1ccc(COc2cccc(-c3ccc(Cc4nc5ccc(C(=O)O)cc5n4C[C@@H]4CCO4)c(F)c3)n2)c(F)c1` [Compound DZ-6, reference compound], the half-life at 1 μM in data set [3] is 2.17 h; in data set [4], 2.88 h. In addition, the figures for the microsomal CLint at 1 μM in data set [3] and in data set [4] (read-out: CLint(mic)) were 10.6 µL/min/mg and 8.01 µL/min/mg, respectively.

Regarding `N#Cc1ccc(COc2cccc(C3CCN(Cc4nc5sc(C(=O)O)cc5n4C[C@@H]4CCO4)CC3)n2)c(F)c1` [Trifluoroacetate salt of compound 1, (S)-2-((4-(6-((4-cyano-2-fluorobenzyl)oxy)pyridin-2-yl)piperidin-1-yl)methyl)-1-(oxetan-2-ylmethyl)-1H-thieno[2,3-d]imidazole-5-carboxylic acid], the EC50 at GLP-1 receptor (setting [5]) and on GLP-1 receptor (setting [6]) was under 10 nM throughout.

Consider `N#Cc1ccc(COc2cccc(C3=CCN(Cc4nc5sc(C(=O)O)cc5n4C[C@@H]4CCO4)CC3)n2)c(F)c1` [Trifluoroacetate salt of compound 2, (S)-2-((6-((4-cyano-2-fluorobenzyl)oxy)-3′,6′-dihydro-[2,4′-bipyridin]-1′(2′H)-yl)methyl)-1-(oxetan-2-ylmethyl)-1H-thieno[2,3-d]imidazole-5-carboxylic acid], for which the EC50 at GLP-1 receptor (setting [5]) and at GLP-1 receptor (setting [6]) was under 10 nM each time.

Take `C[C@H]1CN(c2cccc(OCc3ccc(C#N)cc3F)n2)CCN1Cc1nc2sc(C(=O)O)cc2n1C[C@@H]1CCO1` [Trifluoroacetate salt of compound 3, 2-(((S)-4-(6-((4-cyano-2-fluorobenzyl)oxy)pyridin-2-yl)-2-methylpiperazin-1-yl)methyl)-1-(((S)-oxetan-2-yl)methyl)-1H-thieno[2,3-d]imidazole-5-carboxylic acid]: the EC50 at GLP-1 receptor (setting [5]) and at GLP-1 receptor (setting [6]) was under 10 nM throughout.

(Values after patent US20240124470A1, “FIVE-MEMBERED RING DERIVATIVE AND MEDICAL USE THEREOF” (SICHUAN HAISCO PHARMACEUTICAL CO., LTD., priority 2020, published 2024).)
